Laboratory results published in US9150577B2, “Heterocyclic compounds containing an indole core” (Boehringer Ingelheim International GmbH, priority 2009, dated 2015).

Target: Human RSK2 (Homo sapiens (Human), UniProt P51812)
Assay: Human RSK2 assay (Kinase Glo Plus, residual ATP);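 further: recombinant human RSK2 phosphorylating a substrate peptide, 90 min at 28 °C, leftover ATP read by luminescence, RLU scaled between no-kinase background and uninhibited kinase controls, 4-parameter fit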
Format: biochemical

Chain of Human RSK2 (P51812 whole entry): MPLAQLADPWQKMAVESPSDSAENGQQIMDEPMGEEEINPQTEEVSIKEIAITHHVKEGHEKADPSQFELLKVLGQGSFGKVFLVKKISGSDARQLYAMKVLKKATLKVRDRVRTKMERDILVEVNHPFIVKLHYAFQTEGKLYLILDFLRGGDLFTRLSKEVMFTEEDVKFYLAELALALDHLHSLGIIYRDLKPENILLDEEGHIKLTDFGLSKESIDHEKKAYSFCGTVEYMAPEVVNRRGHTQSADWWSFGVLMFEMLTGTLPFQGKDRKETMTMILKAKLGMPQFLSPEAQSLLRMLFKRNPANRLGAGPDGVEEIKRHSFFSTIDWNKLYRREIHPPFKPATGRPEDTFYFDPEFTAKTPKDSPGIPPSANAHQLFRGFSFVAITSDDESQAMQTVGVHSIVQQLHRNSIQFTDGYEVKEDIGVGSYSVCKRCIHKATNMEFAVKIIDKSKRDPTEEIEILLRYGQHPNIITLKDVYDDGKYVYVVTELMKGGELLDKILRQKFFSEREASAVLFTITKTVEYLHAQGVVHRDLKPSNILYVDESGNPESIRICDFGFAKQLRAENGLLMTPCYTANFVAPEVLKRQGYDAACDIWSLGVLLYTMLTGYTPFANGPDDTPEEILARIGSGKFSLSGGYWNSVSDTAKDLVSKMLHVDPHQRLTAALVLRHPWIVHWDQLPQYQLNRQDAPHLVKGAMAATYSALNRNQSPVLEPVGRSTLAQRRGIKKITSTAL

IC50 [nM]	Compound
400	COc1ccccc1NC(=O)c1ccc2cc3n(c2c1)CCCNC3=O [Example 147, N-(2-methoxyphenyl)-1-oxo-2,3,4,5-tetrahydro-1H-[1,4]diazepino[1,2-a]indole-8-carboxamide]
85	O=C(Nc1cc(C(F)(F)F)no1)c1ccc2cc3n(c2c1)CCCNC3=O [Example 207, 1-oxo-N-[3-(trifluoromethyl)-1,2-oxazol-5-yl]-2,3,4,5-tetrahydro-1H-[1,4]diazepino[1,2-a]indole-8-carboxamide]
540	Cn1ccc(NC(=O)c2ccc3cc4n(c3c2)CCCNC4=O)n1 [Example 11, N-(1-methyl-1H-pyrazol-3-yl)-1-oxo-2,3,4,5-tetrahydro-1H-[1,4]diazepino[1,2-a]indole-8-carboxamide]
1600	CC(C)n1ccc(NC(=O)c2ccc3cc4n(c3c2)CCCNC4=O)n1 [Example 13, 1-oxo-N-[1-(propan-2-yl)-1H-pyrazol-3-yl]-2,3,4,5-tetrahydro-1H-[1,4]diazepino[1,2-a]indole-8-carboxamide]
53	CC(C)n1ncc2cc(NC(=O)c3ccc4cc5n(c4c3)CCCNC5=O)cnc21 [Example 19, 1-oxo-N-[1-(propan-2-yl)-1H-pyrazolo[3,4-b]pyridin-5-yl]-2,3,4,5-tetrahydro-1H-[1,4]diazepino[1,2-a]indole-8-carboxamide]
150	CC(C)(C)c1cc(NC(=O)c2ccc3cc4n(c3c2)CCCNC4=O)no1 [Example 175, N-(5-tert-butyl-1,2-oxazol-3-yl)-1-oxo-2,3,4,5-tetrahydro-1H-[1,4]diazepino[1,2-a]indole-8-carboxamide]
41	O=C(Nc1cccc(-c2cc[nH]n2)c1)c1ccc2cc3n(c2c1)CCCNC3=O [Example 227, 1-oxo-N-[3-(1H-pyrazol-3-yl)phenyl]-2,3,4,5-tetrahydro-1H-[1,4]diazepino[1,2-a]indole-8-carboxamide]
5.2	O=C(Nc1nc2cc(F)ccc2[nH]1)c1ccc2cc3n(c2c1)CCCNC3=O [Example 51, N-(5-fluoro-1H-benzimidazol-2-yl)-1-oxo-2,3,4,5-tetrahydro-1H-[1,4]diazepino[1,2-a]indole-8-carboxamide]
4.8	O=C(Nc1nc2ccccc2n1CC(F)(F)F)c1ccc2cc3n(c2c1)CCCNC3=O [Example 87, 1-oxo-N-[1-(2,2,2-trifluoroethyl)-1H-benzimidazol-2-yl]-2,3,4,5-tetrahydro-1H-[1,4]diazepino[1,2-a]indole-8-carboxamide]
115	Cc1ccc(-c2cc(NC(=O)c3ccc4cc5n(c4c3)CCCNC5=O)on2)cc1 [Example 199, N-[3-(4-methylphenyl)-1,2-oxazol-5-yl]-1-oxo-2,3,4,5-tetrahydro-1H-[1,4]diazepino[1,2-a]indole-8-carboxamide]
160	CC(=O)c1cccc(NC(=O)c2ccc3cc4n(c3c2)CCCNC4=O)c1 [Example 187, N-(3-acetylphenyl)-1-oxo-2,3,4,5-tetrahydro-1H-[1,4]diazepino[1,2-a]indole-8-carboxamide]

Further lines, the compound ahead of its results:

Compound	IC50 [nM]
O=C(Nc1nc2cc(Cl)cc(CN3CCOCC3)c2[nH]1)c1ccc2cc3n(c2c1)CCCNC3=O [Example 46, N-[5-chloro-7-(morpholin-4-ylmethyl)-1H-benzimidazol-2-yl]-1-oxo-2,3,4,5-tetrahydro-1H-[1,4]diazepino[1,2-a]indole-8-carboxamide]	8.7
Cc1cc(NC(=O)c2ccc3cc4n(c3c2)CC2(CCC2)CNC4=O)no1 [Example 170, N-(5-methyl-1,2-oxazol-3-yl)-1′-oxo-2′,3′-dihydro-1′H-spiro[cyclobutane-1,4′-[1,4]diazepino[1,2-a]indole]-8′-carboxamide]	1300
CCCNC(=O)c1nc(NC(=O)c2ccc3cc4n(c3c2)C(C)CNC4=O)sc1C(C)C (stereo not shown) [Example 235, 4-methyl-1-oxo-N-[5-(propan-2-yl)-4-(propylcarbamoyl)-1,3-thiazol-2-yl]-1,2,3,4-tetrahydropyrazino[1,2-a]indole-7-carboxamide]	10.9
CC(C)(O)Cn1c(NC(=O)c2ccc3cc4n(c3c2)CC(C)(C)CNC4=O)nc2ccccc21 [Example 86, N-[1-(2-hydroxy-2-methylpropyl)-1H-benzimidazol-2-yl]-4,4-dimethyl-1-oxo-2,3,4,5-tetrahydro-1H-[1,4]diazepino[1,2-a]indole-8-carboxamide]	5.9
Cc1cc(NC(=O)c2ccc3cc4n(c3c2)CC2(CCNCC2)CNC4=O)no1 [Example 237, N-(5-methyl-1,2-oxazol-3-yl)-1-oxo-2,3-dihydro-1H-spiro[1,4-diazepino[1,2-a]indole-4,4′-piperidine]-8-carboxamide]	6300
C[C@H]1CNC(=O)c2cc3ccc(C(=O)Nc4cccnc4)cc3n21 [Example 155, (4S)-4-methyl-1-oxo-N-(pyridin-3-yl)-1,2,3,4-tetrahydropyrazino[1,2-a]indole-7-carboxamide]	2300
O=C(Nc1cccc(-c2c[nH]cn2)c1)c1ccc2cc3n(c2c1)CCCNC3=O [Example 226, N-[3-(1H-imidazol-4-yl)phenyl]-1-oxo-2,3,4,5-tetrahydro-1H-[1,4]diazepino[1,2-a]indole-8-carboxamide]	52
Cn1cc(NC(=O)c2ccc3cc4n(c3c2)CC(C)(C)CNC4=O)cn1 [Example 163, 4,4-dimethyl-N-(1-methyl-1H-pyrazol-4-yl)-1-oxo-2,3,4,5-tetrahydro-1H-[1,4]diazepino[1,2-a]indole-8-carboxamide]	335
C[C@H]1CNC(=O)c2cc3ccc(C(=O)Nc4cnn(Cc5ccccc5)c4)cc3n2[C@H]1C (relative stereo) [Example 136, N-(1-benzyl-1H-pyrazol-4-yl)-cis-4,5-dimethyl-1-oxo-2,3,4,5-tetrahydro-1H-[1,4]diazepino[1,2-a]indole-8-carboxamide]	9.3
Cc1cc(NC(=O)c2ccc3cc4n(c3c2)[C@@H](C)CCNC4=O)no1 [Example 173, (5S)-5-methyl-N-(5-methyl-1,2-oxazol-3-yl)-1-oxo-2,3,4,5-tetrahydro-1H-[1,4]diazepino[1,2-a]indole-8-carboxamide]	1200
C[C@H]1CNC(=O)c2cc3ccc(C(=O)Nc4cnn(Cc5ccccc5)c4)cc3n21 [Example 133, (4S)-N-(1-benzyl-1H-pyrazol-4-yl)-4-methyl-1-oxo-1,2,3,4-tetrahydropyrazino[1,2-a]indole-7-carboxamide]	17.5
Cc1cc(NC(=O)c2ccc3cc4n(c3c2)CC(C)(C)CNC4=O)no1 [Example 157, 4,4-dimethyl-N-(5-methyl-1,2-oxazol-3-yl)-1-oxo-2,3,4,5-tetrahydro-1H-[1,4]diazepino[1,2-a]indole-8-carboxamide]	1800
CN(C)CCCn1c(NC(=O)c2ccc3cc4n(c3c2)CC2(CC2)CNC4=O)nc2ccccc21 [Example 124, N-{1-[3-(dimethylamino)propyl]-1H-benzimidazol-2-yl}-1′-oxo-2′,3′-dihydro-1′H-spiro[cyclopropane-1,4′-[1,4]diazepino[1,2-a]indole]-8′-carboxamide]	9.25
CN(C)CCn1c(NC(=O)c2ccc3cc4n(c3c2)CCCNC4=O)nc2ccccc21 [Example 103, N-{1-[2-(dimethylamino)ethyl]-1H-benzimidazol-2-yl}-1-oxo-2,3,4,5-tetrahydro-1H-[1,4]diazepino[1,2-a]indole-8-carboxamide]	23
